Measurements from US7119256B2, “Gene encoding acetolactate synthase” (priority 2000, dated 2006).
Several values for one entry are separate records, joined by “and”; a condition that tells them apart may be missing. Identical values can stand only once.

Assays:
mutant ALS protein [1] = experiment: Herbicide sensitivity of ALS partially purified from the resistant mutant (acetoin colorimetric ALS activity); type: biochemical, rice (Kinmaze)
Protocol: (§1) First, 200 g or more of resistant mutant was prepared by a liquid culture method (no supplementation with bispyribac-sodium), the culture having a composition as shown in Table 1 but without Gelrite. Then, about 150 g of the resistant mutant was homogenized using Hiscotron in a volume of buffer-1 [100 mM potassium phosphate buffer (pH 7.5) containing 20% (v/v) glycerol, 0.5 mM thiamin pyrophosphate (TPP), 10 μM flavin adenine dinucleotide (FAD), 0.5 mM MgCl2, and a volume of polyvinyl polypyrrolidone one-tenth that of tissue volume] 3-fold greater than tissue volume. The homogenate was filtered through nylon gauze, and then centrifuged at 15,000×g for 20 min. Ammonium sulfate was added to the centrifuged supernatant to 50% saturation, and then allowed to stand in ice for approximately 1 hour. The mixture was again centrifuged at 15,000×g for 20 min, and then the precipitated fraction was dissolved in about 30 ml of buffer-2 [10 mM Tris hydrochloric acid buffer (pH 7.5) containing 20% (v/v) glycerol, 0.5 mM TPP and 0.5 mM MgCl2]. […]
(§2) Next, the protein concentration of the crude enzyme solution was measured by the Bradford method according to the manual of Bio-Rad Protein Assay. […]
(§3) ALS activity resulting from the mutant ALS protein contained in the eluted fractions apportioned into each test tube for apportion was measured as follows. A reaction solution to be used in a measurement reaction was prepared by mixing an eluted fraction to be measured with a solution comprising 20 mM sodium pyruvate, 0.5 mM TPP, 0.5 mM MgCl2, 10 μM FAD and 20 mM potassium phosphate buffer (pH 7.5). […] After the eluted fraction to be measured was added, the measurement reaction was performed at 30° C. for 40 to 60 min. […]
(§4) Then, to quantify acetoin contained in the reaction solution, 1 ml of 0.5% (w/v) creatine and 1 ml of 5% (w/v) α-naphthol dissolved in 2.5 N sodium hydroxide was added to the reaction solution, followed by incubation at 37° C. for 10 min. Acetoin was then quantified by color comparison of the absorbance (at 525 nm) of the reaction solution, thereby evaluating ALS activity. […]

W548L mutant ALS = molecular target: T1, W548L mutant ALS (Oryza sativa subsp. japonica, UniProt Q6K2E8, W548L); experiment: Herbicide sensitivity of crude ALS with W548L mutation only, 1 mM valine; type: biochemical, rice; settings: crude enzyme
T1 construct: one type of cDNA containing a full length ALS gene could be obtained from a cDNA library derived from the wild type; made in house; host or cells: E. coli JM 109, pGEX-2T backbone (pGEX-2T-wALS); crude enzyme solution
T1 sequence (Q6K2E8 44-644 W548L): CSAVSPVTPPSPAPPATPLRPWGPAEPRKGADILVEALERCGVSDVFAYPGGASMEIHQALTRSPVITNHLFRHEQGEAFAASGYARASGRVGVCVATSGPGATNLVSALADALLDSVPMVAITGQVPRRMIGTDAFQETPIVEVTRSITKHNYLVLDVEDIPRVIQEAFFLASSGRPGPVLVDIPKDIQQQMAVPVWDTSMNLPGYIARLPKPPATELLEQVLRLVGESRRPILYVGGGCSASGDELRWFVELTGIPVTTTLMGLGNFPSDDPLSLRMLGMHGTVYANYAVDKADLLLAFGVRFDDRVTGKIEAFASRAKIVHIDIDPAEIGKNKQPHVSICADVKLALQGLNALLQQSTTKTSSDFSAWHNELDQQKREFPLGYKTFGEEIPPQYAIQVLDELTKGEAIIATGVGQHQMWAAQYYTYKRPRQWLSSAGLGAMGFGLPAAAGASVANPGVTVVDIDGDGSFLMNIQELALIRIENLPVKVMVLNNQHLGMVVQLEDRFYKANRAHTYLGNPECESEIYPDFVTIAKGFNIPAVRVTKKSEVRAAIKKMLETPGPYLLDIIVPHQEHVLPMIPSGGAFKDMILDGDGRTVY
Protocol: (§5) A plasmid having W548L mutant ALS gene or a plasmid having S627I mutant ALS gene was transformed into E. coli strain JM 109. The colonies obtained from transformation were subjected to liquid culture, expression of GST induction protein was induced in the same manner as in Examples 4 and 5, a crude enzyme solution was prepared, and then herbicide sensitivity of ALS was examined in the presence of 1 mM valine.

S627I mutant ALS = molecular target: T2, S627I mutant ALS (Oryza sativa subsp. japonica, UniProt Q6K2E8, S627I); experiment: Herbicide sensitivity of crude ALS with S627I mutation only, 1 mM valine; type: biochemical, rice; settings: crude enzyme
T2 construct: one type of cDNA containing a full length ALS gene could be obtained from a cDNA library derived from the wild type; made in house; host or cells: E. coli JM 109, pGEX-2T backbone; crude enzyme solution
T2 sequence (Q6K2E8 44-644 S627I): as the sequence (Q6K2E8 44-644 W548L) above, with L505W, S584I counted along it
Protocol: as §5

mutant ALS protein [2] = molecular target: mutant ALS protein (Oryza sativa subsp. japonica, UniProt Q6K2E8, S627I/W548L); experiment: Herbicide sensitivity of ALS partially purified from the resistant mutant (acetoin colorimetric ALS activity); type: biochemical, rice (Kinmaze); design: from tissue; host or cells: resistant mutant rice (Kinmaze) cultured cells, liquid culture; ammonium sulfate, Sephadex G-25, HiTrap Q
Sequence of mutant ALS protein (Oryza sativa subsp. japonica, UniProt Q6K2E8, S627I/W548L) (Q6K2E8 44-644 W548L/S627I): as the sequence (Q6K2E8 44-644 W548L) above, with S584I counted along it
Protocol: as §1, §2, §3, §4

wild type ALS protein = molecular target: T3, wild type ALS protein (Oryza sativa subsp. japonica, UniProt Q6K2E8); experiment: Herbicide sensitivity of partially purified wild type ALS protein (acetoin colorimetric ALS activity); type: biochemical, rice (Kinmaze); design: the wild type ALS protein was separated and purified in the same manner and used for the experiment; from tissue; host or cells: wild type rice (Kinmaze) cultured cells, liquid culture; ammonium sulfate, Sephadex G-25, HiTrap Q
T3 sequence (Q6K2E8 44-644): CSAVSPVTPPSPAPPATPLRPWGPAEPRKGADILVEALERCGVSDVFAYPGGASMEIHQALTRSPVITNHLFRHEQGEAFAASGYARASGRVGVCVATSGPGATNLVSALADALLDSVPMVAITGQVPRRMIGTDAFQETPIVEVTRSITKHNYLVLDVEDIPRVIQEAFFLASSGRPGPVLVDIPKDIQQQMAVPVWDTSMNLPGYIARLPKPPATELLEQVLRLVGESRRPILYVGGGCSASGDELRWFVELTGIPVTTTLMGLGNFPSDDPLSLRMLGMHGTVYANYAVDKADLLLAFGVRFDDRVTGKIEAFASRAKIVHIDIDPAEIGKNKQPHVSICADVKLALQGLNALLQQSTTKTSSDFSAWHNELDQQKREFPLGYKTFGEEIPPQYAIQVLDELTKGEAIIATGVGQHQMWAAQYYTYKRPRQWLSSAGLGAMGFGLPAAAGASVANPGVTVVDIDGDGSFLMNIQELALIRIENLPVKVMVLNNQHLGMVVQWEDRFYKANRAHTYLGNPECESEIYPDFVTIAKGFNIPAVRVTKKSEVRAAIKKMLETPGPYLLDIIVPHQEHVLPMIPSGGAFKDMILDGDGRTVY

ALS isozyme I = molecular target: T4, ALS isozyme I (Escherichia coli, UniProt P08142+P0ADF8); experiment: Inhibition by valine of ALS activity derived from E. coli (no plasmid); type: biochemical
T4 construct: CK1 (without plasmid); endogenous in cells
T4 sequence (P0ADF8 whole entry): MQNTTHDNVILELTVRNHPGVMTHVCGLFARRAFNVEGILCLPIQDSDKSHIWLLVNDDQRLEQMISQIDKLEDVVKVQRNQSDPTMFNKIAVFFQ
T4 sequence (P08142 whole entry): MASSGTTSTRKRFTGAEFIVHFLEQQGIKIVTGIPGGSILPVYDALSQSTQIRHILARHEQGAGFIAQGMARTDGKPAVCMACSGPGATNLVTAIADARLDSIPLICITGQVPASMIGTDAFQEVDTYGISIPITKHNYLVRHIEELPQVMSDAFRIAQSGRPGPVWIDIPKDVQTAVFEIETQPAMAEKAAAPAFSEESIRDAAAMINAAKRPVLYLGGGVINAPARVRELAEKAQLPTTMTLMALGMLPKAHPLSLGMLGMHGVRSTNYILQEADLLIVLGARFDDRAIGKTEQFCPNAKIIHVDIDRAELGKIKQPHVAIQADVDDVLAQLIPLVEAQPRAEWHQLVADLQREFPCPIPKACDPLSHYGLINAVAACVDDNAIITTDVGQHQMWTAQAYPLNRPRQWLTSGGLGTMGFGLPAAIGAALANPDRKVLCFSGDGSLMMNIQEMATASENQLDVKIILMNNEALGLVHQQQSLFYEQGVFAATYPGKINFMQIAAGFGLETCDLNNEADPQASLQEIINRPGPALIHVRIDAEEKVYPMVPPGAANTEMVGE
Protocol: ALS activity resulting from the mutant ALS protein contained in the eluted fractions apportioned into each test tube for apportion was measured as follows. A reaction solution to be used in a measurement reaction was prepared by mixing an eluted fraction to be measured with a solution comprising 20 mM sodium pyruvate, 0.5 mM TPP, 0.5 mM MgCl2, 10 μM FAD and 20 mM potassium phosphate buffer (pH 7.5). One ml of this reaction solution was used. After the eluted fraction to be measured was added, the measurement reaction was performed at 30° C. for 40 to 60 min. Then, the reaction was stopped by addition of 0.1 ml of 6N sulfuric acid (or 0.25 N sodium hydroxide).
The prepared ALS enzyme contains ALS activity derived from E. coli.

[3] = 1 mM Valine, E. coli without plasmid

Structure (SMILES)	RS ratio Resistant mutant: I50 (resistant mutant)/I50 (wild type) (mutant ALS protein [1])	resistance imparted by W548L mutation alone (W548L mutant ALS)	resistance imparted by S627I mutation alone (S627I mutant ALS)	IC50 (mutant ALS protein [2])	IC50 (wild type ALS protein)	ALS activity (ALS isozyme I; [3])	Inhibition rate (ALS isozyme I; [3])	inhibition at 1000 µM (ALS isozyme I; 1 mM Valine, E. coli without plasmid, read-out: Inhibition rate)	inhibition of ALS activity derived from E. coli (ALS isozyme I; 1 mM valine)
CC(C)C1(C)N=C(c2nc3ccccc3cc2C(=O)O)NC1=O (stereo not drawn) [Imazaquin, imazaquin]	11.3	results were similar to those for bispyribac-sodium	results were similar to those for bispyribac-sodium	16.7 µM	1.48 µM				
CC(C)[C@H](N)C(=O)O [Valine, valine]						0.1768 OD525/40 min/0.05 ml and 0.1831 OD525/40 min/0.05 ml	88%	86%	almost completely inhibited
